Reference: ChEMBL document CHEMBL1201862, “PubChem BioAssay data set” (2004)
Active and inactive are the calls of the source.

Tests used:
[1] = molecular target: Luciferin 4-monooxygenase (Photinus pyralis, UniProt P08659); assay: inhibition of purified Photinus pyralis luciferase – biochemical, luminescence, dose response (AID 1891)
[2] = Luminescence Cell-Based Dose Confirmation HTS to Identify Inhibitors of Platelet Dense Granule Release. [Related pubchem assays: 1663 (Primary HTS), 1678 (Summary of Project)]; format: functional
[3] = A cytotoxicity screen of small molecule inhibitors of the PhoP region in Salmonella typhi identified in the primary screen. [Related pubchem assays: 1850, 1864, 1985 ]; format: functional
Mucolipin-3 = molecular target: T1, Mucolipin-3 (Homo sapiens, UniProt Q8TDD5); assay: Dose response cell-based high-throughput screening assay for agonists of the transient receptor potential channel ML3 (TRPML3). [Related pubchem assays: 1526, 1424, 1448 ]; format: functional
T1 sequence (Q8TDD5 whole entry): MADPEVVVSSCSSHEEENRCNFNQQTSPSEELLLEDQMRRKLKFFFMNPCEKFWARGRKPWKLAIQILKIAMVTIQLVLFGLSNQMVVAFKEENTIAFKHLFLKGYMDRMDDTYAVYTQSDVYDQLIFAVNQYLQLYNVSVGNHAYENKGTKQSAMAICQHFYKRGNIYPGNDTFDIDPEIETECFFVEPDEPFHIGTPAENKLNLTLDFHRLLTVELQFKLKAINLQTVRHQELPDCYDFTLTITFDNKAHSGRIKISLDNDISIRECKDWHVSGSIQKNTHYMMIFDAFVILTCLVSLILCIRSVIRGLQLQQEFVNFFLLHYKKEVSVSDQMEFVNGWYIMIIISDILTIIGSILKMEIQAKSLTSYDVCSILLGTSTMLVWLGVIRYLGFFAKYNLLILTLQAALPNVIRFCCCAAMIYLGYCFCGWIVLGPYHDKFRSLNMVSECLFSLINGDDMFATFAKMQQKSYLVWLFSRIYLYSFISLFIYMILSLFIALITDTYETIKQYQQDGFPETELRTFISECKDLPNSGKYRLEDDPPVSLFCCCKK

Ion channel NompC = Ion channel NompC (Danio rerio, UniProt Q7T1G6); assay: Fluorescence counterscreen assay for TRPML3 agonists: dose response cell-based high-throughput screening assay to identify agonists of the transient receptor potential channel N1 (TRPN1). [Related pubchem assays: 1526, 1424, 1448 ]; format: functional
Sequence of Ion channel NompC (Q7T1G6 whole entry): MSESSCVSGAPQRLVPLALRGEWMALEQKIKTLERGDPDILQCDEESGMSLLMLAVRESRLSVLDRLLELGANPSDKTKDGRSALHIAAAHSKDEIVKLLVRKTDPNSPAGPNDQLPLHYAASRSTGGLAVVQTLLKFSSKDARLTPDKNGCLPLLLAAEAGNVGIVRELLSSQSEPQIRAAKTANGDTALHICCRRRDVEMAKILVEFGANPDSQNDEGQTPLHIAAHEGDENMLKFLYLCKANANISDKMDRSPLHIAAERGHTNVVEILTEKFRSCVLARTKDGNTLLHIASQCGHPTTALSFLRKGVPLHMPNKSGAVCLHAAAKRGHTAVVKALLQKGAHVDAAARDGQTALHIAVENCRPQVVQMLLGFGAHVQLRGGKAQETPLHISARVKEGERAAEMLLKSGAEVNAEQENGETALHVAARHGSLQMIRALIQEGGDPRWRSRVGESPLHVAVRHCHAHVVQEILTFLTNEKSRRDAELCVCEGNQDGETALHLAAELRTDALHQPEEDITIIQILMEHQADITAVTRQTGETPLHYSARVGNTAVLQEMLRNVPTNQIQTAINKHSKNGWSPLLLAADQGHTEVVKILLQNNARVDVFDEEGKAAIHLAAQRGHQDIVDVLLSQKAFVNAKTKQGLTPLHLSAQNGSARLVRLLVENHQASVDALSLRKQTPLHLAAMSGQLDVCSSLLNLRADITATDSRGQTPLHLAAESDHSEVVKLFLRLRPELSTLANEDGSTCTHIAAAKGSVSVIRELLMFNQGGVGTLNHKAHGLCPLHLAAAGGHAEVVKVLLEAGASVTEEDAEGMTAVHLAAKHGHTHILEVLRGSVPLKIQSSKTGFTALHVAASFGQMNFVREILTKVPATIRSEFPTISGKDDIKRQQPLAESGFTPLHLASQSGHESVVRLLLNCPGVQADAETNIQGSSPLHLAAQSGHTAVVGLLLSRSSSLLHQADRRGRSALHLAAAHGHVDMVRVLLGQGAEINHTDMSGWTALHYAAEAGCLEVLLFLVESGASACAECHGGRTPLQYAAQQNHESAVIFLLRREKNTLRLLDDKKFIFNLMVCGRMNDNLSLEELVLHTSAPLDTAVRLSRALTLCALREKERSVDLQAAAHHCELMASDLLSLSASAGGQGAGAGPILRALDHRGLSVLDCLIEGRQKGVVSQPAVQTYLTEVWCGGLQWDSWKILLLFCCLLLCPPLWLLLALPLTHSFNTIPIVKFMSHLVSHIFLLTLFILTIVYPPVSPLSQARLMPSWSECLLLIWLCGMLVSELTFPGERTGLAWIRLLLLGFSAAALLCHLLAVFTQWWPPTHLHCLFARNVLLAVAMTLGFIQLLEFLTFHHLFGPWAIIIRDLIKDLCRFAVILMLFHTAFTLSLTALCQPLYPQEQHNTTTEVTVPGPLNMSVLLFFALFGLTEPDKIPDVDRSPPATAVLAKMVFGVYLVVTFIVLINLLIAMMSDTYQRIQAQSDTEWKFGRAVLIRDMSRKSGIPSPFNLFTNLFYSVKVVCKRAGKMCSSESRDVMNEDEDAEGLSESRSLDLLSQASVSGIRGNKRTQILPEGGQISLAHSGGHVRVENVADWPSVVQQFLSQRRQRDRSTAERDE

[4] = viability loss of HPDE-C7K cells – cell-based, fluorescence, HTS, primary screen (AID 431); format: functional; settings: Homo sapiens
Caspase-3 = molecular target: T2, Caspase-3 (Homo sapiens, UniProt P42574); format: functional;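 further: Dose-response selectivity test against caspase-3 for candidate inhibitors of sentrin-specific proteases (SENPs)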
T2 sequence (P42574 whole entry): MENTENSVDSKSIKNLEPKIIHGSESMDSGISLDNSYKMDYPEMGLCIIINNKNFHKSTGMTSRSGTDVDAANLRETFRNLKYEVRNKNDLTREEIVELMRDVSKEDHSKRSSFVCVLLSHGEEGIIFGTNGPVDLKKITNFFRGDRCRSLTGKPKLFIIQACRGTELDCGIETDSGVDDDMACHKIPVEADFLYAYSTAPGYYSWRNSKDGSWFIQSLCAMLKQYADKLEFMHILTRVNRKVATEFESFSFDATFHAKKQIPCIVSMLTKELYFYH

[5] = molecular target: T3, Sentrin-specific protease 7 (Homo sapiens, UniProt Q9BQF6); format: functional;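 further: Luminescence-based dose-response confirmation of ultra-high-throughput screening hits, measuring inhibition of SENP7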
T3 sequence (Q9BQF6 whole entry): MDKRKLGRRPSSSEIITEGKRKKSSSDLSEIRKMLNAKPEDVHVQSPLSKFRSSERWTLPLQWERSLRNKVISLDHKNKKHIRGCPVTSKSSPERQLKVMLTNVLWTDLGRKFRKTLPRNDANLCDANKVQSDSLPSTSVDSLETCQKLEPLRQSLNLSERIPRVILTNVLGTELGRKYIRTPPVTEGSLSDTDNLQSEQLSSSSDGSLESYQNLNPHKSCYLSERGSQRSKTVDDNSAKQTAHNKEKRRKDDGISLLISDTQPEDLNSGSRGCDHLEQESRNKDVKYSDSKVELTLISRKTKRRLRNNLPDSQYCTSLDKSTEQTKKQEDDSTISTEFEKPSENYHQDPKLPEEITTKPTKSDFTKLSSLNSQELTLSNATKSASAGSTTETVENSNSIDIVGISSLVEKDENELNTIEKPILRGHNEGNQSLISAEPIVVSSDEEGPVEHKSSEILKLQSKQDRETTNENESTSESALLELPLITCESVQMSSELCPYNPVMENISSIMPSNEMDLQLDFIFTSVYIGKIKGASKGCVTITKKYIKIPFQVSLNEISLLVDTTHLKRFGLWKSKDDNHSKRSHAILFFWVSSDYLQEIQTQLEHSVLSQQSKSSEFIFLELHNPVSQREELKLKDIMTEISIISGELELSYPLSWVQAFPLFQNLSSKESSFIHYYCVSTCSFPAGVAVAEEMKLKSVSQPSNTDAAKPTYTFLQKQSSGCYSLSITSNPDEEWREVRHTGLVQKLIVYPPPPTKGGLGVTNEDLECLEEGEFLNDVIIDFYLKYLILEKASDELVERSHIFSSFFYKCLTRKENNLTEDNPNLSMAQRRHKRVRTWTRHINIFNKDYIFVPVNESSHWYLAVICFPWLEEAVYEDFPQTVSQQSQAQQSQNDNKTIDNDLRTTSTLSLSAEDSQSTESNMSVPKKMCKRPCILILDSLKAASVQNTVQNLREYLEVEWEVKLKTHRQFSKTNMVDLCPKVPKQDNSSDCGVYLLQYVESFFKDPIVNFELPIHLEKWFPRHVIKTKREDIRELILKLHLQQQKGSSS

[6] = molecular target: T4, Sentrin-specific protease 8 (Homo sapiens, UniProt Q96LD8); format: functional;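 further: luminescence read-out of SENP8 inhibition, dose-response confirmation following an ultra-high-throughput screen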
T4 sequence (Q96LD8 whole entry): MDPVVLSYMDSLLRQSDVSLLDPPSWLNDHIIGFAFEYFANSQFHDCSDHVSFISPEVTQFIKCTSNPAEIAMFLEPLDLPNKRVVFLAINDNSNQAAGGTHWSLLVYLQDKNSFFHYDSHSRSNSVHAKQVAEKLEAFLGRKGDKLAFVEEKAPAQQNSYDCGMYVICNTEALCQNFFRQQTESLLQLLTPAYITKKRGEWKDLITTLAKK

[7] = tested on: Streptococcus sp. 'group A'; assay: Streptococcus pyogenes SK(-)GAS viability under kanamycin – luminescence, BacTiterGlo, confirmation, counter-screen for streptokinase expression inhibitor project, dose response (AID 1900); format: functional, organism-based
Streptokinase A = molecular target: T5, Streptokinase A (Streptococcus pyogenes serotype M1, UniProt P10520); assay: viability-normalized secreted streptokinase activity reduction – plasminogen activation absorbance, OD405, dose response (AID 1914); format: functional, Streptococcus pyogenes M1 GAS;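 further: secreted streptokinase activity via plasminogen activation per viability signal from cell pellet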
T5 sequence (P10520 whole entry): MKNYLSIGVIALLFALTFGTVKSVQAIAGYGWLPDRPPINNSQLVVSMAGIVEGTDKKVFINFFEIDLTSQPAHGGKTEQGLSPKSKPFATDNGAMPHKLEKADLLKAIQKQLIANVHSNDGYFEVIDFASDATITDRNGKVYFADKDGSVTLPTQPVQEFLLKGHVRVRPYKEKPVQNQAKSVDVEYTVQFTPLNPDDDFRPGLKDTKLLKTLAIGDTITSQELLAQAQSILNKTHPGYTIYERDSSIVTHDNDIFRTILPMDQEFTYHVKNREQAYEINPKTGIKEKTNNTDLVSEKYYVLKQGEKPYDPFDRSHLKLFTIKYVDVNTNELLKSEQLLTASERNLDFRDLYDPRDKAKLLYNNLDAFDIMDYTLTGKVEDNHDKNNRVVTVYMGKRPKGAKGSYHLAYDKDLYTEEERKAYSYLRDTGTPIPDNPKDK

[8] = viability of PTEN-deleted HCT116 cells – cell-based, HCT116 PTEN knockout, dose response (AID 1047); format: functional;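 further: HCT116 colon tumor cells with PTEN knocked out; cells exposed to compound for 60 hours before readout; potency for loss of cell viability measured by luminescence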
Streptococcus = assay: GAS UMAA2166 growth inhibition – luminescence, BacTiterGlo, counter-screen for streptokinase expression inhibitor project, dose response (AID 1915); format: functional, organism-based;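 further: potency for reduction of bacterial viability or growth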
[9] = HPDE-C7 pancreatic duct cell viability loss – fluorescence, HTS (AID 430); format: functional, cell-based; settings: Homo sapiens
[10] = molecular target: Heat shock protein HSP 90-alpha (Homo sapiens, UniProt P07900); format: functional, organism-based
[11] = viability of HCT116 lacking mutant beta-catenin – cell-based, human colon tumor, dose response (AID 1045); format: functional;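 further: HCT116 colon tumor cells with beta catenin knocked out; cells exposed to compound for 60 hours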
[12] = molecular target: T6, Sentrin-specific protease 6 (Homo sapiens, UniProt Q9GZR1); format: functional;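 further: Luminescence-based dose-response confirmatory assay of SENP6 inhibition, following up an ultra-high-throughput screen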
T6 sequence (Q9GZR1 whole entry): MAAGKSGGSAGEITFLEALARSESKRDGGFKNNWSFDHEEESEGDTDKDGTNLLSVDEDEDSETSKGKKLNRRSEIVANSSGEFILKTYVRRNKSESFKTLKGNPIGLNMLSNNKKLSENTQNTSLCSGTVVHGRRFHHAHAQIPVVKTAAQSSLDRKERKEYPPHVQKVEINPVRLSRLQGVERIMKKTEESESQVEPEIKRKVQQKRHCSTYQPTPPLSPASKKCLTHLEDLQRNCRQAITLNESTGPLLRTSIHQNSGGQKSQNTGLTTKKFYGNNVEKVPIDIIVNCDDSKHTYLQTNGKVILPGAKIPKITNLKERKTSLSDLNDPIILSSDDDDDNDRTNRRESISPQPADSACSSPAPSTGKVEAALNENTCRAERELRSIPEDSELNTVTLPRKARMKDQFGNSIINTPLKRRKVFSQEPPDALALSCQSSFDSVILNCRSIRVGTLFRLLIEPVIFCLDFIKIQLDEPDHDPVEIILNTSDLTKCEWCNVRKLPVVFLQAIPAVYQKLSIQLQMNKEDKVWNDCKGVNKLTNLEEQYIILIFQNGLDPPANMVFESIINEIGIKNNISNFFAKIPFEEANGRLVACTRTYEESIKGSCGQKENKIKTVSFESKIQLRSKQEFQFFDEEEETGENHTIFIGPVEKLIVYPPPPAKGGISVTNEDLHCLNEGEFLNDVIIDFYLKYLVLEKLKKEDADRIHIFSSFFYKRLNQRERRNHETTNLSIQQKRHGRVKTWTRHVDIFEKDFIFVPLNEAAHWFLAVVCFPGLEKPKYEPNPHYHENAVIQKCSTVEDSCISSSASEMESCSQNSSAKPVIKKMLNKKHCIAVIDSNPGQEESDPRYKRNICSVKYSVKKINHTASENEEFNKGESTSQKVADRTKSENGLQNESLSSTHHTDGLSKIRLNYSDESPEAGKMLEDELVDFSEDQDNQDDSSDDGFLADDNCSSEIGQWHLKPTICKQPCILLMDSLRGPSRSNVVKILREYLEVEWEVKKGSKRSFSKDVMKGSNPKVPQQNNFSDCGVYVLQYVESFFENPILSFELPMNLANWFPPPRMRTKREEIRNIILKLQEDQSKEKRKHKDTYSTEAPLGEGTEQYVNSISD

Cytochrome P450 2C9 = Cytochrome P450 2C9 (Homo sapiens, UniProt P11712); settings: Potency
Sequence of Cytochrome P450 2C9 (P11712 whole entry): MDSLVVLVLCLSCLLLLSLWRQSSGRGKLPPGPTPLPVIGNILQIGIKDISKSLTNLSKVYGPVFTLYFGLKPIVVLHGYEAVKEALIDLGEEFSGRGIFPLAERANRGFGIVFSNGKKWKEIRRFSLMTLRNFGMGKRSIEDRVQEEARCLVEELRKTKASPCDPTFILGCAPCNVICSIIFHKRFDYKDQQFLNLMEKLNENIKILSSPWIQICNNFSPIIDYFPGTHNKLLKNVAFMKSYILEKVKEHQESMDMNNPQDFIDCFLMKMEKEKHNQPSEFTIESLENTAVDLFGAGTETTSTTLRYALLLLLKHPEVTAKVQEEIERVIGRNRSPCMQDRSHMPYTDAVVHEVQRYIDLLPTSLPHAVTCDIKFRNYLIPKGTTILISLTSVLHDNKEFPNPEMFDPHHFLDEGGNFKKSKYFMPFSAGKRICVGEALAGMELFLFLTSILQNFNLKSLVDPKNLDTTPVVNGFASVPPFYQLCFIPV

[13] = molecular target: Induced myeloid leukemia cell differentiation protein Mcl-1 (Homo sapiens, UniProt Q07820); format: functional
Sequence of Induced myeloid leukemia cell differentiation protein Mcl-1 (Q07820 whole entry): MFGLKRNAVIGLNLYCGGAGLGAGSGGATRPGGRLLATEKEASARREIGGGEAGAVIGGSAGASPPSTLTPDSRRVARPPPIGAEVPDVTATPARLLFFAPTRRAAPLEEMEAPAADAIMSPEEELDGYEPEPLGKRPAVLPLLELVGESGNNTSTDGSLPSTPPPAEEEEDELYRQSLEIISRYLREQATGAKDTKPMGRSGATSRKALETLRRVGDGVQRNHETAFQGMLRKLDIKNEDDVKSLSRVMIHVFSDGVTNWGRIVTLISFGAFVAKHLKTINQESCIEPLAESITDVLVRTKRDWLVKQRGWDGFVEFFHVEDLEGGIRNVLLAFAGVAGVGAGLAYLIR

cells = format: functional
HeLa = assay: ATP-based viability loss in HeLa cells – cell-based, CellTiter-Glo luminescence, cherry-pick samples, cytotoxicity control for MITF activator project, dose response (AID 540259); format: functional; settings: Homo sapiens

Sequence of Luciferin 4-monooxygenase (P08659 whole entry): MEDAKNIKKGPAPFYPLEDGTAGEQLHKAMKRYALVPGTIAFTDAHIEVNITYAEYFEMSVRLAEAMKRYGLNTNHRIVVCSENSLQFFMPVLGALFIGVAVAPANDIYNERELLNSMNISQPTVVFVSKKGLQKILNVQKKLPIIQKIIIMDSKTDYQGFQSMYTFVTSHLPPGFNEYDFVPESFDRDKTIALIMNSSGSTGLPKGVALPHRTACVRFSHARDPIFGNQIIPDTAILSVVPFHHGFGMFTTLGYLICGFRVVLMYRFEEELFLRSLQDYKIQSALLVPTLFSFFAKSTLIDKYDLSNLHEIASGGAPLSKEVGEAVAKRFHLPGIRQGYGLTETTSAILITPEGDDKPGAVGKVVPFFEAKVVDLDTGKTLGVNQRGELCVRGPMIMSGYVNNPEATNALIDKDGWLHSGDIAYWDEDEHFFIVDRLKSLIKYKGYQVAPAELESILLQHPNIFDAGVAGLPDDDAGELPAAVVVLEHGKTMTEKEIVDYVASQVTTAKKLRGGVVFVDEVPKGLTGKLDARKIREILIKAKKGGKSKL

Q: Which results are given for `CCN(CC)S(=O)(=O)c1cc(NC(=O)C2Cc3ccccc3C(=O)O2)ccc1C` (stereo unspecified)?
A: EC50 [1]: > 112 µM (not active); EC50 [2]: > 112 µM (not active); EC50 [3]: > 50 µM (active)

Q: With `Cc1nn(C(C)(C)C)c(OC(=O)C2CCCC2)c1S(=O)(=O)c1ccccc1` as the compound, how does the EC50 (Mucolipin-3) read?
A: > 9.99 µM (not active)

Q: What about the EC50 (Ion channel NompC) of the same compound?
A: > 29.9 µM (not active)

Q: Which EC50 [4] does the source give for `COc1ccc(O)c(-c2cc(-c3cccc(Br)c3)[nH]n2)c1` here?
A: 4.73 µM (active)

Q: And the IC50 (Caspase-3)?
A: 97.7 µM (active)

Q: And the IC50 [5]?
A: 11.3 µM (active)

Q: What about the IC50 [6] of the same compound?
A: 29.1 µM (active)

Q: What about the EC50 [7] of the same compound?
A: 6.53 µM (active)

Q: What about the EC50 (Streptokinase A) of the same compound?
A: > 150 µM (inconclusive)

Q: And the EC50 [8]?
A: 25.4 µM (active)

Q: What about the EC50 (Streptococcus) of the same compound?
A: 12.4 µM (active)

Q: What about the EC50 [9] of the same compound?
A: 8.85 µM (active)

Q: What about the AC50 [10] of the same compound?
A: 8.06 µM (active)

Q: And the EC50 [11]?
A: 16.6 µM (active)

Q: What about the IC50 [12] of the same compound?
A: 26.5 µM (active)

Q: Which EC50 [4] does the source give for `N#Cc1nc(-c2ccc(OCc3ccccc3)cc2)oc1NCCCN1CCOCC1` here?
A: 13.6 µM (active)

Q: And the EC50 [9]?
A: 13 µM (active)

Q: For `O=C(C1Cc2ccccc2CN1S(=O)(=O)c1ccc(F)cc1)N1CCCCCC1` (stereo unspecified), which EC50 (Mucolipin-3) is on record?
A: 3.72 µM (active)

Q: And the EC50 (Ion channel NompC)?
A: > 29.9 µM (not active)

Q: Which AC50 (Cytochrome P450 2C9) does the source give for `CC(C)C[C@@H](CC(=O)N[C@H](CC(=O)N[C@@H]1CCCC[C@H]1C(=O)N[C@H](CC(=O)N[C@@H](CCC(=O)O)CC(=O)O)Cc1ccccc1)C(C)C)NC(=O)[C@@H]1CCCC[C@H]1N` here?
A: 39.8 µM (inconclusive)

Q: Which EC50 (Mucolipin-3) does the source give for `COC(=O)c1ccc(Cl)cc1N(Cc1c(F)cccc1Cl)S(C)(=O)=O` here?
A: 2.49 µM (active)

Q: What about the EC50 (Ion channel NompC) of the same compound?
A: 6.15 µM (active)

Q: With `C=CCOc1ccc(Cl)cc1CNC1CCCC1` as the compound, how does the EC50 [3] read?
A: > 50 µM (active)

Q: With `CCOC(=O)c1cc(-c2ccco2)nc2c1c(C)nn2-c1cccc(Cl)c1` as the compound, how does the IC50 [13] read?
A: 2.51 µM (active)

Q: What does the source list for `COc1ccc(-c2noc(CCC(=O)Nc3cccc(C)c3)n2)cc1`?
A: IC50 (cells): 15.9 µM (active); EC50 [3]: > 50 µM (active)

Q: Which IC50 [13] does the source give for `[O-][n+]1onc2c1CCC(=N/O)/C2=N\Nc1ccccc1` here?
A: 4.87 µM (active)

Q: Which AC50 (HeLa) does the source give for `COc1cc(O)c2c(=O)cc(-c3ccccc3)oc2c1` [TECHTOCHRYSIN] here?
A: 46.2 µM (active)

Q: What about the AC50 (Cytochrome P450 2C9) of the same compound?
A: 2.51 µM (inconclusive)
